Results taken from patent US6090610A, “Macrolide compound 0406” (Higeta Shoyu Co., Ltd., priority 1996, dated 2000).
Values after ≈ are worked out from the molar mass of the structure shown.

Key:
[1] = in words; cited from earlier work
[2] = Cytotoxity test, 3H-thymidine uptake, HEK-297; format: cell-based; conditions: human, hek-297 cells; HEK-297, 96 h; read-out: IC50 (cytotoxity)
Protocol: (§1) After culturing for 96 hours, ^3 H-thymidine (0.5 μCi/well) was added into each well. The microtiter plate was incubated for 4 hours, followed by trypsin treatment of the cell lines excluding YAC-1, and the resulting cells were recovered on glass fiber filters to measure the radioactivity incorporated into the cells by means of a liquid scintillation counter. From the radioactivity (c) of a well with no addition of any sample and the radioactivity (t) of each of the wells with addition of the individual samples, the growth inhibition rate was determined by the formula […] (%). IC50 was calculated from the results.

[3] = Cytotoxity test, 3H-thymidine uptake, HeLa; format: cell-based; conditions: human, hela cells, read-out: IC50 (cytotoxity)
Protocol: as §1

[4] = Cytotoxity test, 3H-thymidine uptake, YAC-1; format: cell-based; conditions: mouse, yac-1 cells; YAC-1, 96 h; read-out: IC50 (cytotoxity)
Protocol: as §1

[5] = test system: murine T cells (C57BL/6 splenocytes as responder cells); assay: Murine mixed lymphocyte reaction (MLR), T-cell blast formation by tritium-labeled thymidine uptake; format: cell-based; conditions: Mus musculus, 96 h culture + 7 h labeling, read-out: IC50 (MLR, inhibition of tritium-labeled thymidine uptake)
[6] = Cytotoxity test, 3H-thymidine uptake, Cos-1; format: cell-based; conditions: monkey, cos-1 cells; Cos-1, 96 h; read-out: IC50 (cytotoxity)
Protocol: as §1

Solubility = format: physicochemical
[7] = test system: cultured cell lines (HEK-297, Cos-1, YAC-1, HeLa); assay: Cytotoxity test, overall comparison on cultured cell lines; format: cell-based; conditions: in words
Protocol: (1) The cytotoxity test of compound 0406-A shown in Example 1 was carried out against cultured cell lines.
Cell suspensions (5.6×10^4 cells/ml) were prepared by using the Minimum Essential Medium (MEM)-Dulbecco's medium for HEK-297, Cos-1, and Hela cells, and the RPMI 1640 medium for YAC-1 cells (all media containing 10% bovine serum). Samples (0406A, Cyclosporin and Ascomycin) were prepared by serial two-fold dilution starting from 1 mg/ml, by using the individual media. A cell suspension (180 μl) and a sample solution (20 μl) were added into each well of a 96-well microtiter plate, for culturing at 37° C. in wet 5% CO2 -95% air environment. After culturing for 96 hours, ^3 H-thymidine (0.5 μCi/well) was added into each well. The microtiter plate was incubated for 4 hours, followed by trypsin treatment of the cell lines excluding YAC-1, and the resulting cells were recovered on glass fiber filters to measure the radioactivity incorporated into the cells by means of a liquid scintillation counter. From the radioactivity (c) of a well with no addition of any sample and the radioactivity (t) of each of the wells with addition of the individual samples, the growth inhibition rate was determined by the formula […] (%). IC50 was calculated from the results.

[8] = test system: cytotoxic T-cell (CTL) generation; assay: In vitro cytotoxic T-cell activity (inhibitory effect on CTL generation induced by murine mixed lymphocyte reaction), 51Cr release from EL-4 cells; format: cell-based; conditions: for Cytotoxic T-cell activity: lytic units per 10^7 effector cells
Protocol: (2) In vitro cytotoxic T-cell activity (CTL: cytotoxic T-cell) (Inhibitory effect on CTL generation, induced by murine mixed lymphocyte reaction)
A suspension solution (5.5×10^6 cells/ml; 0.9 ml) of BALB/C (H-2^d) splenocytes prepared in the same manner as in Example 2, a suspension solution (5.5×10^6 cells/ml; 0.9 ml) of C57BL/6 (H-2^b) splenocytes preliminarily treated with mitomycin C, and a sample solution (0.2 ml) were added into a 24-well multi-dish, for culturing at 37° C. under conditions of 5% CO2 -95% air for 5 days. After completion of cultivation, the cells were recovered by centrifuge, which were then suspended in the RPMI 1640 medium containing 10% bovine serum, for use as the effector cells.
EL-4 cells (H-2^b) were used as the target cells. The incubation of the EL-4 cells (10^6) with 0.1 μCi Na2^51 CrO4 at 37° C. for 3 hours promoted the ^51 Cr uptake in the cells, and subsequently, the cells were washed and the concentration was adjusted to 2×10^5 cells/ml for use as the target cells.
The determination of the cytotoxic T-cell generation was carried out as follows. The effector cell suspension (100 μl) and the target cell suspension (100 μl) were added into a 96-well round-bottom microtiter plate for cultivation at 37° C. for 4 hours, to measure ^51 Cr release in the supernatant. Then, the cytotoxic T-cell activity was calculated by the formulated below.
Cytotoxic T-cell activity =
[radioactivity of (effector cell + target cell)] -
(radioactivity of target cell alone)/
(radioactivity of target cell treated with 0.1N HCl) -
(radioactivity of target cell alone) × 100
The activity of the cytotoxic T cell was represented in lytic unit (LU). The activity in LU was represented per 10^7 effector cells, when 1 LU was designated as the number of effector cells required for 20% lysis of the 2×10^4 target cells.

[9] = test system: Nocardia brasiliensis IFM 0406; assay: Sensitivity of Nocardia brasiliensis IFM 0406 against antibiotics; format: cell-based
Protocol: The strain was cultured in a culture medium (brain heart infusion containing 2% glucose) at 30° C. with shaking at 250 rpm for 72 hours, and the cells grown in the medium were collected by centrifuge at 3,000 rpm for 10 minutes, which were then washed twice in distilled water. Further, the cells were washed in ethanol and subsequently dried in vacuum to give the dry cells. According to Bergey's Manual of Determinative Bacteriology, the 9-th edition, Williams & Willkins, Baltimore, 1993, the amino acid composition, sugar composition and lipid composition of the dry cells were determined. Meso-diamino pimelic acid was detected by the amino acid analysis, while arabinose and galactose were detected by the sugar analysis. Also, the presence of mycolic acid was determined by the lipid analysis, and the type of the acid was Nocardia type. MK-8(H4) cycle was confirmed as a principal component of the isoprenoid quinone which is a part of the bacterial lipid, while as the trace components, MK-8(H4), MK-8(H), and MK-9(H2) were confirmed. Based onthe decomposition of adenine, casein, hypoxanthine and tyrosine and additionally on the formation patterns of acids from sugar and the antimicrobial sensitivity patterns, shown in Table 4 (Mikami & Yazawa, Susceptibility pattern of pathogenic Nocardia to some selected antimicrobial agents and their usefulness in the identification work in a clinical laboratory: BuLL. JFCC, 5: 89, 1989), the bacterial strain was identified as the species N. brasiliensis. The results of the analysis of the G+C content and DNA homology support strongly that the strain is N. brasiliensis.

SMILES: C=CC[C@@H]1/C=C(\C)C[C@H](C)C[C@H](OC)[C@H]2O[C@@](O)(C(=O)C(=O)N3CCCC[C@H]3C(=O)O[C@H](/C(C)=C/[C@@H]3CC[C@@H](O)[C@H](OC)C3)[C@H](C)[C@@H](O)CC1=O)[C@H](C)C[C@@H]2OC [tacrorims]
- side effects [1]: deleterious in the pancreas and the kidney

SMILES: CC[C@@H]1/C=C(\C)C[C@H](C)C[C@H](OC)[C@H]2O[C@@](O)(C(=O)C(=O)N3CCCC[C@H]3C(=O)O[C@H](/C(C)=C/[C@@H]3CC[C@@H](O)[C@H](OC)C3)[C@H](C)[C@@H](O)CC1=O)[C@H](C)C[C@@H]2OC [Ascomycin, reference compound]
- CC50 at 96 h [2]: 25 mg/L (≈ 31.6 µM)
- CC50 at 96 h [3]: 13 mg/L (≈ 16.4 µM)
- CC50 at 96 h [4]: 50 mg/L (≈ 63.1 µM)
- IC50 [5]: 0.008 mg/L
- CC50 at 96 h [6]: 58 mg/L (≈ 73.2 µM)

SMILES: CCCCC(=O)OC1CC(OC(C)C(C)C(O)C(C)C(O)C(C)C2OC(=O)C=CCC(O)CC(O)CC(O)CCC(C)C(O)CC3(O)OC(CC(O)CC(OC(=O)CC(=O)O)CCCC(O)C4OC4C2C)CC(O)C3O)OC(C)C1O (stereo not drawn) [0406-A]
- Solubility (Solubility; chloroform, ethyl acetate, ether): Insoluble in chloroform, ethyl acetate and ether
- Solubility (Solubility; water, methanol, ethanol, DMSO): Soluble in water, methanol, ethanol and DMSO
- CC50 at 96 h [2]: > 100 mg/L
- CC50 at 96 h [3]: > 100 mg/L
- CC50 at 96 h [4]: > 100 mg/L
- IC50 [5]: 0.16 mg/L
- CC50 at 96 h [6]: > 100 mg/L
- cytotoxity level versus commercially available immuno suppressive agents [7]: lower than that of the commercially available immuno suppressive agents
- Cytotoxic T-cell activity ([8]; 126 ng/ml): 22.0 u
- Cytotoxic T-cell activity ([8]; 625 ng/ml): 12.5 u
- Cytotoxic T-cell activity ([8]; 2,500 ng/ml): 0.1 u
- Cytotoxic T-cell activity ([8]; 10,000 ng/ml): < 0.1 u
- inhibition at 0.126 µg/mL ([8]; Mus musculus, T-cell, 120 h, 126 ng/ml, read-out: Inhibition rate (cytotoxic T-cell activity)): 0%
- inhibition at 0.625 µg/mL ([8]; Mus musculus, T-cell, 120 h, 625 ng/ml, read-out: Inhibition rate (cytotoxic T-cell activity)): 39.5%
- inhibition at 2.5 µg/mL ([8]; Mus musculus, T-cell, 120 h, 2,500 ng/ml, read-out: Inhibition rate (cytotoxic T-cell activity)): 99.5%
- inhibition at 10 µg/mL ([8]; Mus musculus, T-cell, 120 h, 10,000 ng/ml, read-out: Inhibition rate (cytotoxic T-cell activity)): > 99.5%
- induction of CTL ([8]; in words, dose dependence): decreased the induction of CTL in a dose-dependent manner

SMILES: NC[C@H]1O[C@H](O[C@H]2[C@H](O)[C@@H](O[C@H]3O[C@H](CO)[C@@H](O)[C@H](N)[C@H]3O)[C@H](N)C[C@@H]2N)[C@H](O)[C@@H](O)[C@@H]1O [kanamycin]
- Sensitivity against antibiotics [9]: negative

SMILES: O=c1[nH]cc(F)c(=O)[nH]1 [5-FU]
- Sensitivity against antibiotics [9]: negative

SMILES: C[C@@H](O)[C@H]1C(=O)N2C(C(=O)O)=C(SCCN=CN)C[C@H]12 [imipenem]
- Sensitivity against antibiotics [9]: negative

SMILES: NC[C@H]1O[C@H](O[C@H]2[C@H](O)[C@@H](O[C@H]3O[C@H](CO)[C@@H](O)[C@H](N)[C@H]3O)[C@H](N)C[C@@H]2N)[C@H](N)C[C@@H]1O [tobramycin]
- Sensitivity against antibiotics [9]: positive
